≈ marks a conversion by molar mass, not a printed value.
Legend:
Assay type in all cases: functional, cell-based
HL-60 = experiment: Cytotoxicity against human HL60 cells by MTT assay
A-431 = experiment: Cytotoxicity against human A431 cells by MTT assay
SK-OV-3 = experiment: Cytotoxicity against human SKOV3 cells by MTT assay
K562 = experiment: Cytotoxicity against human K562 cells by MTT assay
HepG2 = experiment: Cytotoxicity against human HepG2 cells by MTT assay

SMILES | IC50 (HL-60) | IC50 (A-431) | IC50 (SK-OV-3) | IC50 (K562) | IC50 (HepG2)
NC(=O)c1c(F)c(F)c2[nH]c3ccccc3c(=O)c2c1F | 2 µg/mL (≈ 6.84 µM) | 0.05 µg/mL (≈ 0.171 µM) | 4.5 µg/mL (≈ 15.4 µM) | 4.5 µg/mL (≈ 15.4 µM) | 6.5 µg/mL (≈ 22.2 µM)
NC(=O)c1c(Cl)c(Cl)c2[nH]c3ccccc3c(=O)c2c1Cl | 5.7 µg/mL (≈ 16.7 µM) | 1.2 µg/mL (≈ 3.51 µM) | 28 µg/mL (≈ 82 µM) | 7.7 µg/mL (≈ 22.5 µM) | 1.9 µg/mL (≈ 5.56 µM)
NC(=O)c1c(F)c(Cl)c2[nH]c3ccc(Cl)cc3c(=O)c2c1F | 16.6 µg/mL (≈ 48.4 µM) | 0.3 µg/mL (≈ 0.874 µM) | 5.3 µg/mL (≈ 15.4 µM) | 3 µg/mL (≈ 8.74 µM) | 3.4 µg/mL (≈ 9.91 µM)
NC(=O)c1c(F)c(Cl)c2[nH]c3ccccc3c(=O)c2c1F | 0.2 µg/mL (≈ 0.648 µM) | 0.08 µg/mL (≈ 0.259 µM) | 4 µg/mL (≈ 13 µM) | 0.2 µg/mL (≈ 0.648 µM) | 0.2 µg/mL (≈ 0.648 µM)
NC(=O)c1c(F)c(F)c2[nH]c3ccc(Cl)cc3c(=O)c2c1F | 1.3 µg/mL (≈ 3.98 µM) | 0.3 µg/mL (≈ 0.918 µM) | 3.9 µg/mL (≈ 11.9 µM) | 2.7 µg/mL (≈ 8.27 µM) | 4.3 µg/mL (≈ 13.2 µM)
